Values belong to the molecule of their own block, whether it stands above or below them.
Tests used:
[1] = Change of crystalline form on standing or drying (XRPD); type: physicochemical
Method: XRPD patterns were detected by CuKα irradiation (30 kV, 10 mA) using a Bruker AXS D2 diffractometer. The analysis was performed using θ-θ geometry and a LynxEye detector at 5 to 42° 2θ with a step size of 0.024° 2θ at 0.1 sec/step.
Samples were run at ambient conditions and prepared as flat specimens using powder received without grinding. About 1 to 2 mg of the sample was lightly pressed on a silicon wafer to obtain a flat surface.

[2] = Competitive slurry experiment for Pattern 1 and Pattern 3; type: physicochemical; settings: 4 days
Method: To investigate the relative thermodynamic stability of various crystalline form patterns at room temperature and 50° C., competitive slurry experiments were carried out.
A mixture of Pattern 1 and Pattern 3 (ED01748-028-003-00, 4×20 mg) was dispensed into vials. They were treated with 250 μL of a saturated solution of Pattern 1 (ED01748-006-001-00) in DIPE or heptane (50 mg of ED01748-006-001-00 was treated with DIPE or heptane and heated at 50° C., a portion was removed as needed, and the resulting product was filtered through a 0.45 μm syringe filter, thereby forming a slurry). The produced slurry was stirred at room temperature or 50° C. After analysis, the solid was returned to the vial, and an additional saturated solution was added as needed to maintain the slurry. After 4 days, the purity of the material was confirmed by UPLC.

SMILES: C[C@H](OC(N)=O)[C@@H](O)c1ccccc1Cl [Pattern 8, 1-(2-chlorophenyl)-(S)-1-hydroxypropyl-(S)-2-carbamate]
Change on standing ([1]; Pattern 8 from chloroform and heptane): observed to change on standing
change on standing o/n ([1]; solid from Exp. 10, chloroform/Heptane): No change
change on standing o/n ([1]; solid from Exp. 14, DCM/Heptane): Small

SMILES: C[C@H](OC(N)=O)[C@@H](O)c1ccccc1Cl [Pattern 6, 1-(2-chlorophenyl)-(S)-1-hydroxypropyl-(S)-2-carbamate]
Form conversion by XRPD ([1]; Pattern 6 material from anisole, stood overnight): converted to a mixture of Pattern 6 and Pattern 1
Form conversion by XRPD ([1]; Pattern 6 material from toluene): converted to a mixture of Pattern 6 and Pattern 3

SMILES: C[C@H](OC(N)=O)[C@@H](O)c1ccccc1Cl [Pattern 4, 1-(2-chlorophenyl)-(S)-1-hydroxypropyl-(S)-2-carbamate]
Change in form by XRPD on drying ([1]; brief drying whilst standing in the open vial): change in form by XRPD from Pattern 4 to a mixture of Pattern 1 and Pattern 3

SMILES: C[C@H](OC(N)=O)[C@@H](O)c1ccccc1Cl [ED01748-028-003-00, 1-(2-chlorophenyl)-(S)-1-hydroxypropyl-(S)-2-carbamate]
UPLC purity of slurry material after 4 days ([2]; DIPE samples, RT and 50° C.): 98%
UPLC purity of slurry material after 4 days ([2]; heptane sample): 98.5%

More lines, now with the values ahead:

Behaviour on standing [1]: variable behaviour on standing
SMILES: C[C@H](OC(N)=O)[C@@H](O)c1ccccc1Cl [Pattern 7, 1-(2-chlorophenyl)-(S)-1-hydroxypropyl-(S)-2-carbamate]

change on standing o/n ([1]; solid from Exp. 9, chloroform/Toluene): No change
change on standing o/n ([1]; solid from Exp. 13, DCM/Toluene): No change
SMILES: C[C@H](OC(N)=O)[C@@H](O)c1ccccc1Cl [Pattern 9, 1-(2-chlorophenyl)-(S)-1-hydroxypropyl-(S)-2-carbamate]

Source: patent US12054449B2, “Phenylcarbamate crystalline form and method for manufacturing the same” (BIO-PHARM SOLUTIONS CO., LTD., priority 2021, dated 2024)
